Experimental data: paper PMC12412044, “The Role of LVV‐H7 in Alcohol‐Induced Reward Mechanisms” (Addiction Biology, 2025)
“Also recorded” adds a separate entry of the source.

Assays:
[1] = system: DARPP‐32; assay: Western blot densitometry of DARPP‐32 expression in CNS structures after the CPP test; format: in vivo, rat; conditions: alcohol alone
Description: (§1) Brain structures and spinal cords isolated from the animals were homogenized in 50 μL of the buffer consisting of 50 mM Tris/HCl, pH 7.6 and 150 mM NaCl in the presence of a proteinase inhibitor cocktail (Roche). Cells were homogenized thrice on ice by sonication (5 s each). The homogenate was centrifuged at 25 000g for 30 min at 4°C. The final protein concentration in the supernatant was determined using a Bradford assay kit (Sigma‐Aldrich).
(§2) One‐dimensional polyacrylamide gel electrophoresis was performed after standardizing the samples according to their total protein concentration. Thirty microlitres of the Laemmli sample buffer (Bio‐Rad, USA) were added to the subsequent volume of each sample, followed by incubation for 5 min at 90°C in a Thermomixer (Eppendorf). According to the Bio‐Rad protocol, proteins were separated on the 10% SDS‐PAGE.
(§3) Mini Protean system and electrotransferred onto the PVDF membrane (Bio‐Rad, USA). The adequate antibodies confirmed the presence of proteins (Biorbyt, UK). […]
(§4) Protein expression levels were measured using standard Western blotting. SDS‐PAGE was performed after standardizing protein extracts based on total protein concentration (determined via the Bradford method), immunotransfer, and immunodetection. Densitometric analysis was conducted to quantify protein levels in all structures from five animals. […]

[2] = system: NMDA receptor (NMDAR1); assay: Western blot densitometry of NMDA receptor expression in CNS structures after the CPP test; format: in vivo, rat; conditions: ethanol alone versus control
Description: as §1, §2, §3, §4

[3] = system: μ‐opioid receptor (OPRM1); assay: Western blot densitometry of OPRM1 expression in CNS structures after the CPP test; format: in vivo, rat; conditions: ethanol alone versus control
Description: as §1, §2, §3, §4

[4] = system: male Wistar rats; assay: Ethanol conditioned place preference (CPP) test; format: in vivo, rat
Description: All conducted experiments used male Wistar rats (Experimental Medicine Center, Lublin, Poland) weighing 220 ± 20 g. The animals were housed under standard laboratory conditions (22°C, 12:12‐h light–dark cycle; light on at 8:00 AM) in groups of four rats per cage. The animals were allowed 7 days for acclimation before experiments with access to standard food (Bacutil; Motycz, Poland) and water ad libitum. After 7 days of adaptation and handling, the animals were divided into groups of 7–8 and prepared for the tests. Behavioural experiments were carried out according to the National Institute of Health Guidelines for the Care and Use of Laboratory Animals and the European Community Council Directive for Care and Use of Laboratory Animals (86/609/EEC). The Local Ethics Committee approved them. Additionally, we confirm that ARRIVE guidelines report the study.
(§5) LVV‐H7 was dissolved in 0.9% NaCl and administered intraperitoneally (i.p.) 15 min before experiments at doses of 0.5 and 1 mg/kg. Control groups received 0.9% NaCl injections in an equivalent volume and by the same route. Pepstatin (Sigma‐Aldrich) was dissolved in 0.9% NaCl and administered i.p. at 10 mg/kg. Ethanol (95% w/v, Polmos; Poznan, Poland) was diluted with 0.9% NaCl to a 15% w/v concentration. In the CPP procedure, ethanol at doses of 1 or 1.5 g/kg (15% w/v) was administered i.p. before each conditioning phase.
In our experiments, eight identical rectangular CPP boxes (60 cm × 35 cm × 30 cm), each one composed of three compartments: two large compartments (25 cm × 35 cm) and a smaller central grey compartment (10 cm × 10 cm), were used. In one of the compartments, the inside walls were white, and the floor held a large grid, whereas the walls of the other compartment were painted black, and the floor held a narrow grid. Illumination in the testing room was adjusted so that the environmental (visual and tactile) cues would not produce a significant baseline preference for a specific compartment. Both large compartments were separated from a central grey area by the removable guillotine doors, the opening of which provided access to the larger compartments. The apparatus was thoroughly cleaned between each test procedure and then wiped with dry paper towels to neutralize odour traces. […] The CPP performance was measured by computerized video tracking.
The CPP paradigm was carried out according to an unbiased procedure with minor modifications. […] The time spent in each compartment was measured during the pre‐test phase. […]
During the second phase (pre‐conditioning test), 24 h after the habituation session, rats were placed in the central grey square compartment of the CPP apparatus with free access to all compartments for 15 min. The time spent in each compartment was recorded with a computer programme. […]

[5] = Blood–brain barrier permeability of fluorescently labelled compounds, fluorescence microscopy of brain sections; format: in vivo, rat; conditions: pepstatin conjugated with carboxyfluorescein and LVV-H7 tagged with Dansyl, given i.p. to rats; brain tissue sections, fluorescence microscopy 10×
Description: as §5
The fluorescent analogue of pepstatin was synthesized on the Tentagel S RAM resin. At first, the Fmoc‐Lys (Mtt)‐OH was introduced using COMU/DIPEA, according to the procedure described above. To remove the Mtt group, the dried resin was treated with the TFE/HFIP/TIS/DCM mixture: 1:2:0.5:6.5 (v/v). Labelling with 5(6)‐carboxyfluorescein was performed with 5(6)‐carboxyfluorescein/HOBt/DIC in a molar ratio of 1:1:1. […] The high‐resolution MS characterized the probe, and preparative HPLC assessed its purity.
We investigated the ability of synthesized LVV‐H7 and pepstatin to cross the blood–brain barrier (BBB). […] Brain tissue samples from treated rats were then analysed using fluorescence microscopy.
FIGURE 3 Rat brain sections under visible light and fluorescence microscopy 10×: (a) pepstatin labelled with carboxyfluorescein, (b) LVV‐H7 labelled with Dansyl.

Row | Molecule | DARPP-32 expression after alcohol administration [1] | NMDA receptor expression following EtOH administration [2] | OPRM1 expression following EtOH administration [3] | time spent in the drug-associated compartment on the CPP test day ([4]; ethanol 1.0 g/kg i.p., 10-day conditioning, versus 0.9% NaCl group) | time spent in the drug-paired compartment on the CPP test day (expression of ethanol-induced CPP) ([4]; ethanol 1.5 g/kg (15% w/v) i.p., 10-day conditioning, versus 0.9% NaCl group) | ability to cross the blood–brain barrier (BBB) [5] | expression of ethanol-CPP after pepstatin pretreatment ([4]; pepstatin 10 mg/kg i.p. 5 min before each ethanol injection (1.5 g/kg, 15% w/v, i.p.) during 10-day conditioning, p < 0.001) | time spent in the drug-associated compartment, pepstatin given alone ([4]; pepstatin 10 mg/kg i.p. before each conditioning session, no ethanol, versus 0.9% NaCl) | enzyme involved in the production of fragment VV-H7 (proteins identified in active Fraction 29 of spinal cord homogenate, nanoLC-MALDI-MS/MS) | degradation products of LVV-H7 after incubation with homogenates (rat spinal cord homogenate, DEAE fractions, LVV-hemorphin 60 μg/mL, 10 μL in 40 μL, Tris–HCl pH 7.4, 37°C, 1 h, read-out mass spectrometry)
1 | CCO [ethanol] | upregulation | statistically significant upregulation | statistically significant upregulation | did not change the time spent; also recorded: did not evoke any rewarding effects | spent significantly more time |  |  |  |  | 
2 | pepstatin |  |  |  |  |  | successfully cross the BBB | significantly blocked the expression of ethanol‐CPP | did not change the time spent |  | 
3 | CC(C)C[C@H](N)C(=O)N[C@H](C(=O)N[C@H](C(=O)N[C@@H](Cc1ccc(O)cc1)C(=O)N1CCC[C@H]1C(=O)N[C@@H](Cc1c[nH]c2ccccc12)C(=O)N[C@H](C(=O)N[C@@H](CCC(N)=O)C(=O)N[C@@H](CCCNC(=N)N)C(=O)N[C@@H](Cc1ccccc1)C(=O)O)[C@@H](C)O)C(C)C)C(C)C [LVV‐H7, LVV‐hemorphin‐7] |  |  |  |  |  | successfully cross the BBB |  |  | puromycin‐sensitive aminopeptidase (PSA) | VVYPWTQRF, YPWTQRF, PWTQRF and LVVYPWTQR fragments were mainly revealed
